# Literature values in patent US5140036A, “1,3,5-trisubstituted-1,2,4-triazole compounds for treatment of circulatory disorders” (priority 1990, dated 1992).
# Experiments:
# angiotensin II = conditions: series of binding experiments, functional assays and in vivo tests
# [1] = tested on: angiotensin II at its receptors; conditions: commercially-available peptidic angiotensin II antagonists
Compound,angiotensin II antagonist activity (angiotensin II),residual agonist activity [1]
CCCCc1nc(Cl)c(CC(=O)O)n1Cc1ccccc1[N+](=O)[O-] [2-butyl-4-chloro-1-(2-nitrobenzyl)imidazole-5-acetic acid],specific competitive angiotensin II antagonist activity,
CCCCc1nc(Cl)c(CC(=O)O)n1Cc1ccccc1Cl [2-n-butyl-4-chloro-1-(2-chlorobenzyl)imidazole-5-acetic acid],specific competitive angiotensin II antagonist activity,
CNCC(=O)N[C@@H](CCCN=C(N)N)C(=O)N[C@H](C(=O)N[C@@H](Cc1ccc(O)cc1)C(=O)N[C@H](C(=O)N[C@@H](Cc1cnc[nH]1)C(=O)N1CCC[C@H]1C(=O)N[C@@H](C)C(=O)O)C(C)C)C(C)C [Saralasin],,significant residual agonist activity
